The values below come from US20040147494A1, “Use” (priority 2001, published 2004).

The target in one data set is T1, 11 β-HSD type 1 (Rattus norvegicus, UniProt P16232).
T1 construct: Both the kidneys and livers were homogenised on ice in PBS- sucrose buffer; tissue Harlan Olac, Bicester, Oxon, UK (rats); host or cells: rat liver homogenate supernatant (Wistar rat)
As to the kind of experiment: biochemical. The conditions noted are these: rat liver cytosol 25 μL, 90 min, 37° C., cortisone (E) to cortisol (F), vs control without inhibitor, means n=2; for inhibition at 10 µM: read-out: % […]→F ± SD, inhibitor 10 μM, read-out: % INHIBITION E→F ± SD. The data set is classed as biochemical.

Another data set deals with T2, 11 β-HSD type 2 (Rattus norvegicus, UniProt P50233).
T2 construct: Both the kidneys and livers were homogenised on ice in PBS- sucrose buffer; tissue Harlan Olac, Bicester, Oxon, UK (rats); host or cells: rat kidney homogenate supernatant (Wistar rat)
T2 sequence (P50233 1-400): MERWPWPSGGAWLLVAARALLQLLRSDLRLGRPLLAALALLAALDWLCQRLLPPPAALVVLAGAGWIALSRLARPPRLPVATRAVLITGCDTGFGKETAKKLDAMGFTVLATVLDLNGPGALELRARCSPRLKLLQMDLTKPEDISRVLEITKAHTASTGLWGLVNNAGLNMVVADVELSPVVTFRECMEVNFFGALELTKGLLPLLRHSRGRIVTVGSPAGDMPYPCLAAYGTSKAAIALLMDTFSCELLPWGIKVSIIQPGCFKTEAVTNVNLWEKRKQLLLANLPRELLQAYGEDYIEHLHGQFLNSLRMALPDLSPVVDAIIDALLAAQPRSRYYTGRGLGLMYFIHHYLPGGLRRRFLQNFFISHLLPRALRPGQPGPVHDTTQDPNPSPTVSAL
As to the kind of experiment: biochemical. The note with it: rat kidney cytosol 150 μL, 60 min, 37° C., cortisol (F) to cortisone (E), vs control without inhibitor, means n=2; for inhibition at 10 µM: read-out: % […]→E ± SD, inhibitor 10 μM, read-out: % INHIBITION F→E ± SD. As to the method:
Enzymes—Rat livers and rat kidneys were obtained from normal Wistar rats (Harlan Olac, Bicester, Oxon,UK). Both the kidneys and livers were homogenised on ice in PBS- sucrose buffer (1 g/10 ml) using an Ultra-Turrax. After the livers and kidneys were homogenised the homogenate was centrifuged for five minutes at 4000 rpm. The supernatant obtained was removed and stored in glass vials at −20° C. The amount of protein per μl of rat liver and kidney cytosol was determined using the Bradford method.
The same procedure was used for the 11 β-HSD type 2 assay, the conversion F to E, to determine the amount of rat kidney to be used and the incubation time.
In these assays the influence of different inhibitors on the 11 β-HSD activity both in reductive (type 1) and oxidative (type 2) directions were assessed. In the reductive direction E is the substrate and F the product and visa versa in the case of oxidation. The method described here is for the oxidative direction.
The substrate solution contained about 50,000 cpm/ml ^3H—F in PBS-sucrose and 0.5 pM F. 1 ml of the substrate solution was added to each tube, the inhibitors were also added, at a 10 μM concentration, to each tube except to the “control” and “blank” tubes. 150 μL was added to all tubes except to the blanks, this was done to correct for the amount of ^3H[…]. The tubes were incubated for 60 minutes in a mechanically shaken water bath at 37° C. […] After incubation 50 μL of recovery was added to correct for the losses made in the next steps, containing 5000 cpm/50 μL of ^14C-E and 50 μg/50 μL of unlabelled E (to visualise the spot on the TLC-plate). The aqueous mixture was then extracted with 4 ml of ether (2×30 sec cycle, vortex mix). After freezing the aqueous phase, the ether (upper) layer was decanted into smaller tubes and evaporated at 45° C. until completely dry. The residue was then re-dissolved in 6 drops of ether and transferred to a TLC-plate. The TLC-plate was developed in chloroform:methanol (9:1 v/v) solvent system, the TLC-plate ran for about 90 minutes until the solvent front had moved about 18 cm. The position of the product E was visualised under UV-light and cut out from the TLC-plate and put into scintillation vials. Radioactivity was eluted over 5 minutes with 0.5 ml methanol. 0.5 ml of PBS- sucrose and 10 ml of Ecoscint were then added and vortex mixed before counting in the scintillation counter. Before counting the samples, two total activity vials were prepared. These contained 0.5 ml of the substrate solution, 50 μL of the recovery, 0.5 ml of methanol and 10 ml of Ecoscint. These two total activity vials were needed to determine the amount of ^14C-E and ^3H—F added in the beginning to make the calculations.
To look at the percentage of inhibition four different concentrations, 1, 5, 10 and 20 μM, were used. The method for both the rat liver, type 1 the reductive, and rat kidney, type 2 the oxidative, stay the same throughout the entire experiment.
In this experiment the influence of different inhibitors on the conversion E to F and F to E was determined. The reason why inhibition in both directions was examined was to make a comparison between the inhibitors and which type of 11 β-HSD they inhibit more. Thirty-two compounds were screened for their ability to inhibit 11 β-HSD type 1 (E to F) and type 2 (F to E). […] The percent of inhibition was calculated as the percentage of decrease in radio labelled ^3H-E and ^3H—F of product formed, compared with the control activity (the tubes without an inhibitor in it). All the results calculated are means, n=2.

T1 sequence (P16232 whole entry): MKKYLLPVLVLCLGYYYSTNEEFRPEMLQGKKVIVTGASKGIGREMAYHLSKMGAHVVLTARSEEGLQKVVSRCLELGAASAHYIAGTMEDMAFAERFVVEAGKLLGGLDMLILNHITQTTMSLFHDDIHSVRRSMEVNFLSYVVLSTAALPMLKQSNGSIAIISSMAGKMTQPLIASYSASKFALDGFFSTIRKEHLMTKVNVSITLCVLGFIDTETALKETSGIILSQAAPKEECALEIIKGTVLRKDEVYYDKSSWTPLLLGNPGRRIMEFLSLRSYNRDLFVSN

`CC(O)C1CCC2C3CCC4=C[C@@H](O)CC[C@]4(C)C3[C@H](O)C[C@]12C` (stereo in doubt) [STX125, 3,11,20-Trihydroxyproqesterone] returned a melting point of 122 to 125 °C. For the same compound, the inhibition at 10 µM at 11 β-HSD type 1 was determined as 85.1 ± 3.4%. Also, on 11 β-HSD type 2, the inhibition at 10 µM amounted to 72.2 ± 4.3%.

For `CC(=O)O[C@H]1CC[C@@]2(C)C(CC[C@]3(C)C2CC=C2[C@@H]4C[C@@](C)(C(=O)OCc5ccccc5)CC[C@]4(C)CC[C@]23C)C1(C)C` (stereo partly drawn) [STX 354, 11-Deoxo-3β-aectoxy-18β-glycyrrhetinic acid benzyl ester], the melting point is 207 to 208 °C. Further, at 11 β-HSD type 1, the inhibition at 10 µM was -1.18 ± 9.22%. In addition, the inhibition at 10 µM at 11 β-HSD type 2 is 13.6 ± 1.42%.

Compound `CO[C@@H]1C[C@]2(C)C(C(C)=O)CCC2C2CCC3=CC(=O)CC[C@]3(C)C21` (stereo partly drawn) [STX193, 11α-Methoxyprogesterone] came in with a melting point of 164 to 165 °C. In addition, at 11 β-HSD type 1, the inhibition at 10 µM came to 48.1 ± 0.313%. For the same compound, the inhibition at 10 µM at 11 β-HSD type 2 turned out to be 68.2 ± 3.68%.

Take `CC(O)C1CCC2C3CCC4=C[C@@H](O)CC[C@]4(C)C3[C@H](OCc3ccccc3)C[C@]12C` (stereo in doubt) [STX-126, 11α-benzyloxy-3,20-dihydroxyprogesterone]: the melting point was 117 to 118 °C. The inhibition at 10 µM on 11 β-HSD type 1 amounted to 33.8 ± 0.354%. The inhibition at 10 µM at 11 β-HSD type 2 is 13.5 ± 2.97%.

As for `CC1(C)C2CC[C@]3(C)C(C(=O)C=C4[C@@H]5C[C@@](C)(C(=O)OCC6CCCCC6)CC[C@]5(C)CC[C@]43C)[C@@]2(C)CC[C@@H]1O` (stereo partly drawn) [STX198, 3β-hydroxy-11-oxo-18β-glycyrrhetinic acid cyclohexylmethyl ester], the melting point lay in the range of 98 to 99 °C. Moreover, the inhibition at 10 µM on 11 β-HSD type 1 was 52.3 ± 1.25%. Besides, the “% INHIBITION F→E ± SD” value on 11 β-HSD type 2 (inhibitor 10 μM, 10 µM) is on record as 33.1 ± 1.838%. On 11 β-HSD type 2, the inhibition at 10 µM came to 33%.

Consider `CCOC(=O)[C@@]1(C)CC[C@]2(C)CC[C@]3(C)C(=CC(=O)C4[C@@]5(C)CC[C@H](O)C(C)(C)C5CC[C@]43C)[C@@H]2C1` (stereo partly drawn) [STX196, 3β-hydroxy-11-oxo-18β-glycyrrhetinic acid ethyl ester], for which the melting point lay in the range of 93 to 94 °C. In addition, the inhibition at 10 µM on 11 β-HSD type 1 came out at 80.7 ± 2.14%. Besides, the inhibition at 10 µM at 11 β-HSD type 2 stood at 97.5 ± 1.37%.

The compound `CC(=O)C1CCC2C3CCC4=CC(=O)CC[C@]4(C)C3C(=O)C[C@]12C` (stereo partly drawn) [STX124, 11-Oxo-progesterone] returned a melting point of 182 to 183 °C. Besides, at 11 β-HSD type 1, the inhibition at 10 µM came to 100 ± 6.8%. Further, the inhibition at 10 µM on 11 β-HSD type 2 worked out at 92.6 ± 2.1%.

As for `CC(=O)C1CCC2C3CCC4=CC(=O)CC[C@]4(C)C3[C@H](OCc3ccccc3)C[C@]12C` (stereo partly drawn) [STX 185, 11α-Benzyloxyprogesterone], the melting point lay within 207 to 210 °C. Moreover, at 11 β-HSD type 1 (inhibitor 10 μM, 10 µM), the “% INHIBITION E→F ± SD” value is recorded as 16.1 ± 10.4%. On 11 β-HSD type 1, the inhibition at 10 µM was determined as 14%. Also, on 11 β-HSD type 2, the inhibition at 10 µM amounted to 18.9 ± 4.2%.

In turn, `CC(C)(C)OC(=O)[C@@]1(C)CC[C@]2(C)CC[C@]3(C)C(=CC(=O)C4[C@@]5(C)CC[C@@H](O)C(C)(C)C5CC[C@]43C)[C@@H]2C1` (stereo partly drawn) came in with a melting point of 95 to 97 °C.
